Results: US20150089682A1, “ALS Inhibitor Herbicide Tolerant B. Napus Mutants” (priority 2012, published 2015)

B1: Wild-type: Arabidopsis thaliana wild-type ALS expressed in Escherichia coli, crude protein extract (protein, UniProt P17597 56-670, looked up)
Acetolactate synthase, …: SSSPSSISAVLNTTTNVTTTPSPTKPTKPETFISRFAPDQPRKGADILVEALERQGVETVFAYPGGASMEIHQALTRSSSIRNVLPRHEQGGVFAAEGYARSSGKPGICIATSGPGATNLVSGLADALLDSVPLVAITGQVPRRMIGTDAFQETPIVEVTRSITKHNYLVMDVEDIPRIIEEAFFLATSGRPGPVLVDVPKDIQQQLAIPNWEQAMRLPGYMSRMPKPPEDSHLEQIVRLISESKKPVLYVGGGCLNSSDELGRFVELTGIPVASTLMGLGSYPCDDELSLHMLGMHGTVYANYAVEHSDLLLAFGVRFDDRVTGKLEAFASRAKIVHIDIDSAEIGKNKTPHVSVCGDVKLALQGMNKVLENRAEELKLDFGVWRNELNVQKQKFPLSFKTFGEAIPPQYAIKVLDELTDGKAIISTGVGQHQMWAAQFYNYKKPRQWLSSGGLGAMGFGLPAAIGASVANPDAIVVDIDGDGSFIMNVQELATIRVENLPVKVLLLNNQHLGMVMQWEDRFYKANRAHTFLGDPAQEDEIFPNMLLFAAACGIPAARVTKKADLREAIQTMLDTPGPYLLDVICPHQEHVLPMIPSGGTFNDVITEGDGRIKY

Columns and labels:
[1] = tested on: spring oilseed rape homozygous for HETO108 and HETO121; experiment: Herbicide tolerance in the field, visible phytotoxicity; type: in vivo, Brassica napus; conditions: HETO108-HETO121, field, 18 days after application, 0%=no phytotoxic effects, 100%=all plants killed
Text: (§1) Seeds of spring oilseed rape homozygous for HETO108 and HETO121 were sown in a field according to typical practical agricultural methods. The registered spring oilseed rape variety ABILITY served as a comparison. All plants were cultivated up to BBCH stage 14 (four true leaves of the oilseed rape plants). Afterwards, the herbicides mentioned in table 2 have been applied to the oilseed rape plants by using specific spray equipment for small plot applications. The water amount used was 200 L/ha.

[2] = tested on: spring oilseed rape variety ABILITY; experiment: as above; type: in vivo, Brassica napus; conditions: ABILITY, field, 18 days after application, 0%=no phytotoxic effects, 100%=all plants killed
Text: as §1

[3] = molecular target: T1, Arabidopsis thaliana wild-type ALS (Arabidopsis thaliana, UniProt P17597, E575Q); experiment: biochemical; conditions: measured, crude extract of E. coli expressed enzyme; for IC50: read-out: pI50 WT (converted)
T1 construct: vector-encoded N-terminal fusion of pET-32a(+) (Trx/His/S tag by own knowledge); made in house; host or cells: Escherichia coli AD494
Description: (§2) Bacteria were grown at 37° C. in LB-medium containing 100 mg/1 carbenicillin and 25 mg/1 canamycin, induced with 1 mM isopropyl-β-D-thiogalactopyranoside at an OD600 of 0.6, cultivated for 16 hours at 18° C. and harvested by centrifugation. Bacterial pellets were resusupended in 100 mM sodium phosphate buffer pH 7.0 containing 0.1 mM thiamine-pyrophosphate, 1 mM MgCl2, and 1 μM FAD at a concentration of 1 gram wet weight per 25 ml of buffer and disrupted by sonification. The crude protein extract obtained after centrifugation was used for ALS activity measurements.
(§3) Assays were initiated by adding enzyme and terminated after 75 min incubation at 30° C. by the addition to 40 μl 0.5 M H2SO4. […] Reaction velocities were tiffed to the Michalis-Menten equation with the XLFit curve fitting program.

[4] = molecular target: T2, Arabidopsis thaliana P197S-mutant ALS (Arabidopsis thaliana, UniProt P17597, E575Q/P197S); experiment: biochemical; conditions: for IC50 / pI50 P197S: measured, crude extract of E. coli expressed enzyme; for IC50: read-out: pI50 P197S (converted); for Resistance Factor P197S: relative to WT, from measured pI50
T2 construct: vector-encoded N-terminal fusion of pET-32a(+) (Trx/His/S tag by own knowledge); made in house; host or cells: Escherichia coli AD494
Description: as §2, §3

[5] = molecular target: T3, Arabidopsis thaliana W574L-mutant ALS (Arabidopsis thaliana, UniProt P17597, E575Q/W574L); experiment: biochemical; conditions: for IC50 / pI50 W574L: measured, crude extract of E. coli expressed enzyme; for IC50: read-out: pI50 W574L (converted); for Resistance Factor W574L: relative to WT, from measured pI50
T3 construct: vector-encoded N-terminal fusion of pET-32a(+) (Trx/His/S tag by own knowledge); made in house; host or cells: Escherichia coli AD494
Description: as §2, §3

[6] = molecular target: T4, Arabidopsis thaliana S653N-mutant ALS (Arabidopsis thaliana, UniProt P17597, E575Q/S653N); experiment: biochemical; conditions: for IC50 / pI50 S653N: measured, crude extract of E. coli expressed enzyme; for IC50: read-out: pI50 S653N (converted); for Resistance Factor S653N: relative to WT, from measured pI50
T4 construct: vector-encoded N-terminal fusion of pET-32a(+) (Trx/His/S tag by own knowledge); made in house; host or cells: Escherichia coli AD494
Description: as §2, §3

[7] = molecular target: T5, mixture of S653N and W574L ALS enzymes (Arabidopsis thaliana, UniProt P17597); type: biochemical; conditions: for pI50 S653N & W574L: calculated for a mixture of equal activities of the two enzymes, pI50=3.0 used where measured <4; for Resistance Factor S653N & W574L: relative to WT, calculated
T5 construct: crude E. coli extract was used
Description: as §3
(§4) To characterize the response of a mixture of two different ALS enzymes to a given ALS inhibitor the following assumptions were made: • a inhibition is competitive and reversible • b. in the absence of inhibitor, equal activities of the ALS (mutant) enzymes 1 and 2 are present
(§5) Using experimentally determined pI50-values for various ALS-inhibiting herbicides, enzyme activities at different inhibitor concentrations were calculated (see Theory) for each ALS enzyme. Total ALS activity at any given inhibitor concentration is the sum of the activity of (mutant) enzyme 1 and (mutant) enzyme 2. If the experimentally determined pI50-value was <4, pI50=3.0 was used for the calculations. If the calculated pI50-value was 3.0, the pI50 was redefined as <4.

[8] = molecular target: T6, mixture of P197S and W574L ALS enzymes (Arabidopsis thaliana, UniProt P17597); type: biochemical; conditions: for pI50 P197S & W574L: calculated for a mixture of equal activities of the two enzymes, pI50=3.0 used where measured <4; for Resistance Factor P197S & W574L: relative to WT, calculated
T6 construct: crude E. coli extract was used
Description: as §3, §4, §5

[9] = Kinetic parameters of enzymatic activity of AHAS mutants; type: biochemical, Arabidopsis thaliana; conditions: pyruvate varied 0-120 mM
Description: as §2, with “The coding sequences of the Arabidopsis thaliana wild-type and P197S-, W574L-, and S653N-mutant ALS genes were cloned into Novagen pET-32a(+) vectors and the vectors transformed into Escherichia coli AD494 according to the instructions of the manufacturer. Bacteria were” for “Bacteria were”
ALS assays were carried out in 96-well microtiter plates using a modification of the procedure described by Ray (1984), Plant Physiol 75:827-831. The reation mixture contained 20 mM potassium phosphate buffer pH 7.0, 20 mM sodium pyruvate, 0.45 mM thiamine-pyrophosphate, 0.45 mM MgCl2, 9 μM FAD, ALS enzyme and various concentrations of ALS inhibitors in a final volume of 90 μl. Assays were initiated by adding enzyme and terminated after 75 min incubation at 30° C. by the addition to 40 μl 0.5 M H2SO4. […] The pI50 values measured for the different mutant AHAS proteins and calculated for the mixtures of two different AHAS enzymes are shown in Table 3. […] Reaction velocities were tiffed to the Michalis-Menten equation with the XLFit curve fitting program.

[10] = Brassica napus, topical, 432 h, AI dose rate 5 gai/ha, read-out: % phytotox
[11] = Brassica napus, topical, 432 h, AI dose rate 50 gai/ha, read-out: % phytotox
[12] = Brassica napus, topical, 432 h, AI dose rate 10 gai/ha, read-out: % phytotox

Molecule	IC50 [3] [nM]	IC50 [4] [nM]	Resistance Factor P197S [4]	IC50 [5] [nM]	Resistance Factor W574L [5]	IC50 [6] [nM]	Resistance Factor S653N [6]	pI50 S653N & W574L [7]	Resistance Factor S653N & W574L [7]	pI50 P197S & W574L [8]	Resistance Factor P197S & W574L [8]	also measured
COC(=O)c1sccc1S(=O)(=O)NC(=O)Nc1nc(C)nc(OC)n1 [Thifensulfuron-Methyl, thifensulfuron-methyl]	39.8	7940	200	63100	1585	200	5	5.4	100	4.6	631	pest or weed control at 5 g/ha [1, 10]: 0%; pest or weed control at 5 g/ha [2, 10]: 85%
COc1cc(OC)nc(Oc2cccc(Oc3nc(OC)cc(OC)n3)c2C(=O)O)n1 [Bispyribac-sodium, bispyribac-sodium]	20	79.4	4	7940	398	251	13	5.8	79	6.1	40	pest or weed control at 50 g/ha [1, 11]: 75%; pest or weed control at 50 g/ha [2, 11]: 100%
COc1cc(OC)nc(NC(=O)NS(=O)(=O)c2ncccc2C(F)(F)F)n1 [Flazasulfuron, flazasulfuron]	0.794	100	126	3160	3981	0.316	0	7.5	40	6.2	794	pest or weed control at 50 g/ha [1, 11]: 80%; pest or weed control at 50 g/ha [2, 11]: 100%
COc1ncc(F)c2nc(S(=O)(=O)Nc3c(F)cccc3F)nn12 [Florasulam, florasulam]	–	–	25	–	1585	–	8	5.7	126	5.5	200	% phytotox ([1]; AI dose rate 10 gai/ha): 70%; % phytotox ([2]; AI dose rate 10 gai/ha): 100%; pI50 WT [3]: 7.8; pI50 P197S [4]: 6.4; pI50 W574L [5]: 4.6; pI50 S653N [6]: 6.9
COc1cc(OC)n2nc(NS(=O)(=O)c3c(C(F)(F)F)ccnc3OC)nc2n1 [Pyroxsulam, pyroxsulam]	–	–	251	–	>39810	–	63	5.3	1995	4.8	6310	% phytotox ([1]; AI dose rate 50 gai/ha): 0%; % phytotox ([2]; AI dose rate 50 gai/ha): 99%; pI50 WT [3]: 8.6; pI50 P197S [4]: 6.2; pI50 W574L [5]: <4; pI50 S653N [6]: 6.8
CCS(=O)(=O)c1nc2ccccn2c1S(=O)(=O)NC(=O)Nc1nc(OC)cc(OC)n1 [Sulfosulfuron, sulfosulfuron]	25.1	39800	1585	> 100000	>3981	126	5	5.4	158	3.6	10000	pest or weed control at 10 g/ha [1, 12]: 3%; pest or weed control at 10 g/ha [2, 12]: 100%
B1	–	–	–	–	–	–	–	–	–	–	–	Km [9]: 2100 ± 100 µM; Vmax [9]: 42.7 ± 1.3 ΔE/min mg
